Measurements as given in the supplement of paper PMC10307832.

How the values were obtained:
Assay in all cases: relative viability (nuclei count vs DMSO), 5 days (fraction); higher = more cells survive
NCI-H650 = test system: NCI-H650
Summary of the method: (§1)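 Lung cancer cell lines in 1536-well plates were dosed by pin tool the day after seeding, either with one drug alone or with a fixed anchor-drug dose plus five library-drug doses (not always all listed) in √10 steps. After 5 days, cells were fixed and their nuclei stained in one step (final 0.05% Triton X-100, 1% formaldehyde, 1 ug/ml Hoechst), then counted on 4× images. Relative viability is the nuclei count in treated wells divided by that in vehicle wells. Values are medians of duplicate plates.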

HCC-44 = test system: HCC-44
Summary of the method: as §1

SK-MES-1 = test system: SK-MES-1
Summary of the method: as §1

A-427 = test system: A-427
Summary of the method: as §1

NCI-H522 = test system: NCI-H522
Summary of the method: as §1

NCI-H1666 = test system: NCI-H1666
Summary of the method: as §1

NCI-H1975 = test system: NCI-H1975
Summary of the method: as §1

COR-L23 = test system: COR-L23
Summary of the method: as §1

HCC-827 = test system: HCC-827
Summary of the method: as §1

HCC-15 = test system: HCC-15
Summary of the method: as §1

NCI-H520 = test system: NCI-H520
Summary of the method: as §1

NCI-H596 = test system: NCI-H596
Summary of the method: as §1

NCI-H1437 = test system: NCI-H1437
Summary of the method: as §1

NCI-H1792 = test system: NCI-H1792
Summary of the method: as §1

COR-L 105 = test system: COR-L 105
Summary of the method: as §1

NCI-H838 = test system: NCI-H838
Summary of the method: as §1

LK-2 = test system: LK-2
Summary of the method: as §1

NCI-H441 = test system: NCI-H441
Summary of the method: as §1

LCLC-103H = test system: LCLC-103H
Summary of the method: as §1

EKVX = test system: EKVX
Summary of the method: as §1

201T = test system: 201T
Summary of the method: as §1

SW 900 = test system: SW 900
Summary of the method: as §1

HARA = test system: HARA
Summary of the method: as §1

NCI-H23 = test system: NCI-H23
Summary of the method: as §1

C[C@@H]1CN(CC(=O)Nc2ccc3c(c2)Cc2cccc(-c4cc(=O)cc(N5CCOCC5)o4)c2S3)C[C@H](C)O1 + CC(=O)Nc1cccc(-n2c(=O)n(C3CC3)c(=O)c3c(Nc4ccc(I)cc4F)n(C)c(=O)c(C)c32)c1 [Trametinib] (partner 0.02 µM)
relative viability (NCI-H650; first compound 0.04 µM): 0.954
relative viability (NCI-H650; first compound 0.1265 µM): 1
relative viability (NCI-H650; first compound 0.4 µM): 0.874
relative viability (NCI-H650; first compound 4 µM): 0.697
relative viability (HCC-44; first compound 0.04 µM): 1.05
relative viability (HCC-44; first compound 0.1265 µM): 1.03
relative viability (HCC-44; first compound 0.4 µM): 1.1
relative viability (HCC-44; first compound 4 µM): 1.03
relative viability (SK-MES-1; first compound 0.04 µM): 0.652
relative viability (SK-MES-1; first compound 0.1265 µM): 0.53
relative viability (SK-MES-1; first compound 0.4 µM): 0.463
relative viability (SK-MES-1; first compound 4 µM): 0.405
relative viability (A-427; first compound 0.04 µM): 0.682
relative viability (A-427; first compound 0.1265 µM): 0.755
relative viability (A-427; first compound 0.4 µM): 0.678
relative viability (A-427; first compound 4 µM): 0.583
relative viability (NCI-H522; first compound 0.04 µM): 0.737
relative viability (NCI-H522; first compound 0.1265 µM): 0.749
relative viability (NCI-H522; first compound 0.4 µM): 0.724
relative viability (NCI-H522; first compound 4 µM): 0.816
relative viability (NCI-H1666; first compound 0.04 µM): 0.881
relative viability (NCI-H1666; first compound 0.1265 µM): 0.924
relative viability (NCI-H1666; first compound 0.4 µM): 0.91
relative viability (NCI-H1666; first compound 4 µM): 0.738
relative viability (NCI-H1975; first compound 0.04 µM): 0.382
relative viability (NCI-H1975; first compound 0.1265 µM): 0.377
relative viability (NCI-H1975; first compound 0.4 µM): 0.37
relative viability (NCI-H1975; first compound 4 µM): 0.33
relative viability (COR-L23; first compound 0.04 µM): 0.596
relative viability (COR-L23; first compound 0.1265 µM): 0.611
relative viability (COR-L23; first compound 0.4 µM): 0.624
relative viability (COR-L23; first compound 4 µM): 0.447
relative viability (HCC-827; first compound 0.04 µM): 0.541
relative viability (HCC-827; first compound 0.1265 µM): 0.51
relative viability (HCC-827; first compound 0.4 µM): 0.491
relative viability (HCC-827; first compound 4 µM): 0.513
relative viability (HCC-15; first compound 0.04 µM): 0.374
relative viability (HCC-15; first compound 0.1265 µM): 0.331
relative viability (HCC-15; first compound 0.4 µM): 0.308
relative viability (HCC-15; first compound 4 µM): 0.348
relative viability (NCI-H520; first compound 0.04 µM): 0.675
relative viability (NCI-H520; first compound 0.1265 µM): 0.629
relative viability (NCI-H520; first compound 0.4 µM): 0.626
relative viability (NCI-H520; first compound 4 µM): 0.556
relative viability (NCI-H596; first compound 0.04 µM): 0.771
relative viability (NCI-H596; first compound 0.1265 µM): 0.757
relative viability (NCI-H596; first compound 0.4 µM): 0.725
relative viability (NCI-H596; first compound 4 µM): 0.768
relative viability (NCI-H1437; first compound 0.04 µM): 0.47
relative viability (NCI-H1437; first compound 0.1265 µM): 0.467
relative viability (NCI-H1437; first compound 0.4 µM): 0.506
relative viability (NCI-H1437; first compound 4 µM): 0.369
relative viability (NCI-H1792; first compound 0.04 µM): 0.422
relative viability (NCI-H1792; first compound 0.1265 µM): 0.444
relative viability (NCI-H1792; first compound 0.4 µM): 0.295
relative viability (NCI-H1792; first compound 4 µM): 0.385
relative viability (COR-L 105; first compound 0.04 µM): 0.458
relative viability (COR-L 105; first compound 0.1265 µM): 0.412
relative viability (COR-L 105; first compound 0.4 µM): 0.416
relative viability (COR-L 105; first compound 4 µM): 0.428
relative viability (NCI-H838; first compound 0.04 µM): 0.688
relative viability (NCI-H838; first compound 0.1265 µM): 0.488
relative viability (NCI-H838; first compound 0.4 µM): 0.521
relative viability (NCI-H838; first compound 4 µM): 0.39
relative viability (LK-2; first compound 0.04 µM): 0.874
relative viability (LK-2; first compound 0.1265 µM): 0.756
relative viability (LK-2; first compound 0.4 µM): 0.709
relative viability (LK-2; first compound 4 µM): 0.912
relative viability (NCI-H441; first compound 0.04 µM): 0.539
relative viability (NCI-H441; first compound 0.1265 µM): 0.481
relative viability (NCI-H441; first compound 0.4 µM): 0.305
relative viability (NCI-H441; first compound 4 µM): 0.368
relative viability (LCLC-103H; first compound 0.04 µM): 0.668
relative viability (LCLC-103H; first compound 0.1265 µM): 0.629
relative viability (LCLC-103H; first compound 0.4 µM): 0.68
relative viability (LCLC-103H; first compound 4 µM): 0.693
relative viability (EKVX; first compound 0.04 µM): 0.364
relative viability (EKVX; first compound 0.1265 µM): 0.369
relative viability (EKVX; first compound 0.4 µM): 0.349
relative viability (EKVX; first compound 4 µM): 0.294
relative viability (201T; first compound 0.04 µM): 0.732
relative viability (201T; first compound 0.1265 µM): 0.728
relative viability (201T; first compound 0.4 µM): 0.675
relative viability (201T; first compound 4 µM): 0.739
relative viability (SW 900; first compound 0.04 µM): 0.894
relative viability (SW 900; first compound 0.1265 µM): 0.696
relative viability (SW 900; first compound 0.4 µM): 0.892
relative viability (SW 900; first compound 4 µM): 0.572
relative viability (HARA; first compound 0.04 µM): 0.785
relative viability (HARA; first compound 0.1265 µM): 0.654
relative viability (HARA; first compound 0.4 µM): 0.602
relative viability (HARA; first compound 4 µM): 0.406
relative viability (NCI-H23; first compound 0.04 µM): 0.356
relative viability (NCI-H23; first compound 0.1265 µM): 0.348
relative viability (NCI-H23; first compound 0.4 µM): 0.336
relative viability (NCI-H23; first compound 4 µM): 0.286
